Data from patent US6538152B1, “Phenoxyacetic acid derivatives and medicinal compositions containing the same” (Kissei Pharmaceutical Co., Ltd., priority 1998, dated 2003).
Counter-ions that a name gives are not always drawn. Like-named read-outs stand apart in the source and are kept apart here.

Columns and labels:
β2-adrenoceptor = target: T1, β2-adrenoceptor (Rattus norvegicus, UniProt P10608); experiment: Experiment for measuring β2-adrenoceptor stimulating effects (inhibition of spontaneous contraction of isolated pregnant rat uterus, Magnus method); assay type: cell-based; settings: isolated uteri of pregnant SD rats (pregnancy day 21), sum of contractions during 5 minutes
T1 construct: Uteri of pregnant SD rats (pregnancy day 21) were isolated; from tissue; host or cells: uterus (myometrium strips) of pregnant SD rats, day 21
T1 sequence (P10608 whole entry): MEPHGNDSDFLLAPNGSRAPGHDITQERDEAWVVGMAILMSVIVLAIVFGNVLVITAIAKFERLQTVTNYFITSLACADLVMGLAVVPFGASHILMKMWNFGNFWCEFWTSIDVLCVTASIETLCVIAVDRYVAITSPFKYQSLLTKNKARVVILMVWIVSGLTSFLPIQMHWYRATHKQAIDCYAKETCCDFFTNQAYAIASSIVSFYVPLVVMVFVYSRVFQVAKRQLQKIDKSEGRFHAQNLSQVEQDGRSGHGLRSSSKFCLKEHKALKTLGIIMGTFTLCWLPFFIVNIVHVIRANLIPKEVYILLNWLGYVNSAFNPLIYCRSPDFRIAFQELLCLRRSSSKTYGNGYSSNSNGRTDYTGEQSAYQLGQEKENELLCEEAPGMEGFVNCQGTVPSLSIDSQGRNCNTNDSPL
Description: Also, uteri of pregnant rats were isolated and preparations were made. The experiment was conducted according to the Magnus method. The sum of uterine contractions during 5 minutes before addition of a test compound was expressed as 100%. The test compound was added cumulatively.
The Experiment for Measuring β2-adrenoceptor Stimulating Effects
Uteri of pregnant SD rats (pregnancy day 21) were isolated and longitudinal strips of approximately 15 mm in length and approximately 5 mm in width free from the basal plate were prepared. The experiment was conducted according to the Magnus method. The preparations with a tension of 0.5 g were exposed to Locke-Ringer solution maintained at 37° C. and gassed with a mixture of 95% oxygen and 5% carbon dioxide. Spontaneous contractions of myometrium were isometrically measured with a force-displacement transducer and recorded. A test compound was cumulatively added to the Magnus bath every 5 minutes.

β1-adrenoceptor = target: T2, β1-adrenoceptor (Rattus norvegicus, UniProt P18090); experiment: Experiment for measuring β1-adrenoceptor stimulating effects (heart rate increase in isolated rat atria, Magnus method); assay type: cell-based; settings: isolated atria of male SD rats, 100% = increase after 10^−8M isoproterenol
T2 construct: Atria of male SD rats (250 to 400 g in body weight) were isolated; from tissue; host or cells: atria of male SD rats
T2 sequence (P18090 whole entry): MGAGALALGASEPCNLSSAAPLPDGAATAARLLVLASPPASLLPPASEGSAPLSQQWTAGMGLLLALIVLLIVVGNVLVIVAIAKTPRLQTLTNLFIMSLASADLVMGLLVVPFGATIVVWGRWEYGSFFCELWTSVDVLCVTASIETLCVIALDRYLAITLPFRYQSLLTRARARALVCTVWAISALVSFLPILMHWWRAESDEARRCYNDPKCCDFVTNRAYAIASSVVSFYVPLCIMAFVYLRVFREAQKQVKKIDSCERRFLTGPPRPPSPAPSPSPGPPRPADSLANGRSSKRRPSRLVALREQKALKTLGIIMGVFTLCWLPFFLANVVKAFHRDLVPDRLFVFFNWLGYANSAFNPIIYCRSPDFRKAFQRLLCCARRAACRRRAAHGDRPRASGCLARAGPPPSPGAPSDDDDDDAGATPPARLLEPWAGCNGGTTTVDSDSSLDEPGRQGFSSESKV
Description: Namely, the experiment was conducted using atria of rats according to the Magnus method. The increment of heart rate after addition of 10^−8M isoproterenol was expressed as 100%. A test compound was added cumulatively.
The Experiment for Measuring β1-adrenoceptor Stimulating Effects
Atria of male SD rats (250 to 400 g in body weight) were isolated and the experiment was conducted according to the Magnus method. The preparations with a tension of 0.5 g were exposed to Krebs-Henseleit solution maintained at 37° C. and gassed with a mixture of 95% oxygen and 5% carbon dioxide. The cardiac contractility was isometrically measured with a force-displacement transducer, and heart rate was recorded via a tachometer. A test compound was added cumulatively. Increase of heart rate per minute after addition of 10^−8M isoproterenol was expressed as 100%.

β3-adrenoceptor = β3-adrenoceptor (Mustela putorius furo, UniProt M3YEU4); experiment: Experiment for measuring β3-adrenoceptor stimulating effects (relaxation of isolated ferret urinary bladder smooth muscle, Magnus method); assay type: cell-based; settings: read-out: EC50 value (concentration required to produce 50% of the relaxation of urinary bladder smooth muscle); isolated male ferret urinary bladder strips; 0% = maximal relaxation by 10^−5M forskolin
Sequence of β3-adrenoceptor (M3YEU4 1-435): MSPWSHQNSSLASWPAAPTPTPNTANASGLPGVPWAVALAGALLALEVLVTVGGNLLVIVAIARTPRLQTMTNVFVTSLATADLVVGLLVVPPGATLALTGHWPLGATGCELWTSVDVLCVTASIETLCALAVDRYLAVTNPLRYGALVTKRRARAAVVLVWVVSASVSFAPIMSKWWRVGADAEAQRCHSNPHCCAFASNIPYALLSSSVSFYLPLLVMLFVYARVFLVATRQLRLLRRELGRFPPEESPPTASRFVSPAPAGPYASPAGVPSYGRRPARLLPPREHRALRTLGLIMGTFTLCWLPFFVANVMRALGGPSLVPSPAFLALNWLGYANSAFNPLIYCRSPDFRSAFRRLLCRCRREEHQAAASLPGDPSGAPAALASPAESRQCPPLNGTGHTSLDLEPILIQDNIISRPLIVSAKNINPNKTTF
Description: Namely, urinary bladders of ferrets were isolated and preparations were made. The experiment was conducted according to the Magnus method. The […] tension without addition of a test compound is expressed as 100%, and the tension of maximal relaxation after addition of 10^−5M forskolin was expressed as 0%. The test compound was added cumulatively.
The Experiment for Measuring β3-adrenoceptor Stimulating Effects
Urinary bladders of male ferrets (1100 to 1400 g in body weight) were isolated and urinary bladder smooth muscle strips of approximately 10 mm in length and approximately 2 mm in width were prepared. The experiment was conducted according to the Magnus method. The preparations with a tension of 1 g were exposed to Krebs-Henseleit solution maintained at 37° C. and gassed with a mixture of 95% oxygen and 5% carbon dioxide. Basal tensions of urinary bladder were isometrically measured with a force-displacement transducer and recorded. A test compound was cumulatively added to the Magnus bath every about 5 minutes. Tension of urinary bladder smooth muscle before addition of the test compound was expressed as 100% and tension of maximal relaxation induced by 10^−5M of forskolin was expressed as 0%.

male ICR rats = experiment: Acute toxicity test; assay type: in vivo, rat; settings: male ICR rats of 4 weeks age, oral, 2 g/kg, during 24 hours after the administration, hydrochloride
Description: Furthermore, the compounds represented by the above general formula (I) of the present invention are very safe.
To male ICR rats of 4 weeks age was administered orally ethyl 2-[2-chloro-4-[2-[[(1S,2R)-2-hydroxy-2-(4-hydroxyphenyl)1-methylethyl]amino]ethyl]phenoxy]acetate hydrochloride at a does of 2 g/kg.

SMILES	EC50 (β2-adrenoceptor) [nM]	EC50 (β1-adrenoceptor) [µM]	also measured
C[C@H](Cc1ccc(OCC(=O)O)cc1)NC[C@H](O)c1cccc(Cl)c1 [(R,R)-BRL-37344, reference compound]	–	–	EC50 (β2-adrenoceptor; read-out: EC50 value (concentration required to produce 50% of the inhibition of uterine contraction)): 9 nM; EC50 (β1-adrenoceptor; read-out: EC50 value (concentration required to produce 50% increase of heart rate per minute)): 0.27 µM; EC50 (β3-adrenoceptor): 1.6 nM
C[C@H](NCCc1ccc(OCC(=O)O)c(Br)c1)[C@H](O)c1ccc(O)cc1 [Compound 24]	10000	> 100	–
C[C@H](NCCc1ccc(OCC(=O)O)c(Cl)c1)[C@H](O)c1ccc(O)cc1 [Compound 25, 2-[2-Chloro-4-[2-[[(1S,2R)-2-hydroxy-2-(4-hydroxyphenyl)-1-methylethyl]amino]ethyl]phenoxy]acetic acid]	–	70	–
C[C@H](NCCc1cc(Cl)c(OCC(=O)O)c(Cl)c1)[C@H](O)c1ccc(O)cc1 [Compound 26]	1400	> 100	–
C[C@H](NCCc1cc(Cl)c(OCC(=O)O)cc1Cl)[C@H](O)c1ccc(O)cc1 [Compound 27, 2-[2,5-Dichloro-4-[2-[[(1S,2R)-2-hydroxy-2-(4-hydroxyphenyl)-1-methylethyl]amino]ethyl]phenoxy]acetic acid]	490	49	–
C[C@H](NCCc1ccc(OCC(=O)O)c(F)c1)[C@H](O)c1ccc(O)cc1 [Compound 28, 2-[2-Fluoro-4-[2-[[(1S,2R)-2-hydroxy-2-(4-hydroxyphenyl)-1-methylethyl]amino]ethyl]phenoxy]acetic acid]	1800	30	–
COc1cc(CCN[C@@H](C)[C@H](O)c2ccc(O)cc2)ccc1OCC(=O)O [Compound 29, 2-(4-[2-[[(1S,2R)-2-Hydroxy-2-(4-hydroxyphenyl)-1-methylethyl]amino]ethyl]-2-methoxyphenoxy]acetic acid]	3900	> 100	–
CCOc1cc(CCN[C@@H](C)[C@H](O)c2ccc(O)cc2)ccc1OCC(=O)O [Compound 30, 2-[2-Ethoxy-4-[2-[[(1S,2R)-2-hydroxy-2-(4-hydroxyphenyl)-1-methylethyl]amino]ethyl]phenoxy]acetic acid]	25000	> 100	–
C[C@H](NCCc1ccc(OCC(=O)O)c(OCc2ccccc2)c1)[C@H](O)c1ccc(O)cc1 [Compound 31, 2-[2-Benzyloxy-4-[2-[[(1S,2R)-2-hydroxy-2-(4-hydroxyphenyl)-1-methylethyl]amino]ethyl]phenoxy]acetic acid]	1900	> 100	–
Cc1cc(CCN[C@@H](C)[C@H](O)c2ccc(O)cc2)ccc1OCC(=O)O [Compound 33]	13000	31	–
Cc1cc(OCC(=O)O)c(C)cc1CCN[C@@H](C)[C@H](O)c1ccc(O)cc1 [Compound 35, 2-[4-[2-[[(1S,2R)-2-Hydroxy-2-(4-hydroxyphenyl)-1-methylethyl]amino]ethyl]-2,5-dimethylphenoxy]acetic acid]	1800	38	–
C[C@H](NCCc1ccc(OCC(=O)O)c(C(F)(F)F)c1)[C@H](O)c1ccc(O)cc1 [Compound 36, 2-[4-[2-[[(1S,2R)-2-Hydroxy-2-(4-hydroxyphenyl)-1-methylethyl]amino]ethyl]-2-(trifluoromethyl)phenoxy]acetic acid hydrochloride]	20000	> 100	–
C[C@H](NCCc1ccc(OCC(=O)O)c(C#N)c1)[C@H](O)c1ccc(O)cc1 [Compound 37, 2-[2-Cyano-4-[2-[[(1S,2R)-2-hydroxy-2-(4-hydroxyphenyl)-1-methylethyl]amino]ethyl]phenoxy]acetic acid]	76000	33	–
C[C@H](NCCc1ccc(OCC(=O)O)c([N+](=O)[O-])c1)[C@H](O)c1ccc(O)cc1 [Compound 38, 2-[4-[2-[[(1S,2R)-2-Hydroxy-2-(4-hydroxyphenyl)-1-methylethyl]amino]ethyl]-2-nitrophenoxy]acetic acid]	2600	58	–
CCOC(=O)COc1ccc(CCN[C@@H](C)[C@H](O)c2ccc(O)cc2)cc1NC=O [Compound 40, Ethyl 2-[2-Formylamino-4-[2-[[(1S,2R)-2-hydroxy-2-(4-hydroxyphenyl)-1-methylethyl]amino]ethyl]phenoxy]acetate]	1000	3.5	–
C[C@H](NCCc1ccc(OCC(=O)O)c(C(=O)N(C)C)c1)[C@H](O)c1ccc(O)cc1 [Compound 43, 2-[2-(Dimethylaminocarbonyl)-4-[2-[[(1S,2R)-2-hydroxy-2-(4-hydroxyphenyl)-1-methylethyl]amino]ethyl]phenoxy]acetic acid]	53000	58	–
C[C@H](NCCc1ccc(OCC(=O)O)c(O)c1)[C@H](O)c1ccc(O)cc1 [Compound 46, 2-[2-Hydroxy-4-[2-[[(1S,2R)-2-hydroxy-2-(4-hydroxyphenyl)-1-methylethyl]amino]ethyl]phenoxy]acetic acid]	210	21	–
C[C@H](NCCc1ccc(OCC(=O)O)c(N(C)C)c1)[C@H](O)c1ccc(O)cc1 [Compound 47, 2-[2-Dimethylamino-4-[2-[[(1S,2R)-2-hydroxy-2-(4-hydroxyphenyl)-1-methylethyl]amino]ethyl]phenoxy]acetic acid]	17000	> 100	–
CCOC(=O)COc1ccc(CCN[C@@H](C)[C@H](O)c2ccc(O)cc2)cc1Cl.Cl [Compound 48, Ethyl 2-[2-chloro-4-[2-[[(1S,2R)-2-hydroxy-2-(4-hydroxyphenyl)-1-methylethyl]amino]ethyl]phenoxy]acetate hydrochloride]	–	17	Death of animals (acute toxicity) (male ICR rats; listed as ethyl 2-[2-chloro-4-[2-[[(1S,2R)-2-hydroxy-2-(4-hydroxyphenyl)1-methylethyl]amin): No death of animals was observed; Death of animals (acute toxicity) (male ICR rats; listed as ethyl 2-[2-chloro-4-[2-[[(1S,2R)-2-hydroxy-2-(4-hydroxyphenyl)-1-methylethyl]ami): no death was observed
CCOC(=O)COc1cc(Cl)c(CCN[C@@H](C)[C@H](O)c2ccc(O)cc2)cc1Cl [Compound 49, Ethyl 2-[2,5-dichloro-4-[2-[[(1S,2R)-2-hydroxy-2-(4-hydroxyphenyl)-1-methylethyl]amino]ethyl]phenoxy]acetate hydrochloride]	61	6.8	–
